Experiments:
HBV-DNA = test: HBV DNA content in HepG2.2.15 cells culture supernatant by real time-qPCR; assay type: cell-based; settings: supernatant on the 8th day
Description: (§1) 2.1 Cell Line: HepG2.2.15 Cells
3.6 15 μL of the reaction mixture was added into each well of a 96-well PCR plate, followed by addition of 10 μL of sample DNA or HBV DNA standards into each well.
3.7 PCR reaction conditions: heating at 95° C. for 10 minutes, then denaturation at 95° C. for 15 seconds, extension at 60° C. for 1 minute, a total of 40 cycles.

HBsAg = settings: read-out: HBsAg EC50; HepG2.2.15 cells, supernatant on the 8th day
Description: The HBV DNA content in HepG2.2.15 cells culture supernatant was determined by real-time quantitative qPCR assay (real time-qPCR), and the HBV surface antigen content was determined by enzyme linked immunosorbent assay (ELISA). The inhibitory effect of the compound on HBV was evaluated by the EC50 value of the compound.
as §1
3.1 HepG2.2.15 cells (4×10^4 cells/well) were seeded into a 96-well plate and incubated overnight at 37° C. under 5% CO2.
3.2 On the 2nd day, the compound was diluted into 8 concentrations with 3-fold gradient. The compounds with different concentrations were added into the culture wells in duplicate wells. The final concentration of DMSO in the culture medium was 0.5%, 10 μM ETV was used as a 100%/inhibition control, and 0.5% DMSO was used as a 0% inhibition control.
3.3 On the 5th day, the culture medium was replaced with a fresh medium containing the compound.
3.4 On the 8th day, the culture medium in the culture well was collected, and a part of the sample was taken for ELISA to determine the content of hepatitis B virus S antigen, a part of the sample was taken to extract DNA with a high-throughput DNA purification kit (Qiagen-51162).
3.8 Determination of hepatitis B virus S antigen content by ELISA
50 μL of sample and standard sample were taken and added into a reaction plate respectively, followed by addition of 50 μL of enzyme conjugate into each well, the mixture was shaken and well-mixed, and placed in a bath at 37° C. for 60 minutes. The plate was then washed with washing solution 5 times, followed by addition of 50 μL of illuminating substrate into each well, the mixture was well-mixed and allowed to react at room temperature for 10 minutes in the dark. Chemiluminescence intensity was determined by a ELISA.
Calculation of the percentage of inhibition:% Inh.=(1−value of sample/value of DMSO control)×100
Calculation of EC50: The 50% inhibitory concentration (EC50) value of the compound on HBV was calculated by GraphPad Prism software.

HBV [1] = test: Anti-HBV activity on the hepatitis B virus mouse model (AAV-HBV); assay type: in vivo, C57BL/6 mice; settings: 1 mg/kg, PO, QD
Description: The AAV vector-mediated HBV infected mouse model is a fast and efficient HBV model. Using the high hepatotropism of the AAV vector, the recombinant adeno-associated type 8 virus carrying 1.3 copies of the HBV genome (rAAV8-1.3HBV) is injected into the tail vein of mice, which can efficiently introduce the carried 1.3 copy HBV genome into hepatocytes. Due to the characteristics of the AAV viral vector, the vector mediated by it can express for a long time. The AAV/HBV model can continuously replicate HBV DNA and express HBsAg and HBeAg in the liver of the mice.
The anti-HBV efficacy of the test compound in vivo was evaluated by determining the content of HBsAg in the serum of the mice after treatment with the test compound on AAV/HBV mouse mode.
C57BL/6 mice, 10% HP-f-CD as vehicle, reference compound TDF (Tenofovir), test compound, recombinant virus rAAVS-1.3HBV, main reagents of the experiment including QIAamp96 DNA kit and TaqMan® Universal PCR Master Mix, Hepatitis B Virus Surface Antigen Detection Kit, instruments including: centrifuge (Beckman Allegra X-15R), tissue grinder (QIAGEN-Tissue lyser II) and spectrophotometer (Thermo-NANODROP 1000).
a) All mice were orally administered on the 28th day after the virus injection, and the day was set as day 0. Submaxillary blood of all mice was collected for serum collection before administration. The mice were administered once a day for four weeks.
b) Submaxillary blood of all mice was collected for serum collection twice a week, the volume of the blood collected each time was approximately 100 μL.
c) On the 28th day, all mice were euthanized and the blood was collected from the heart for serum collection.
The content of HBsAg in the serum of the mice was determined by ELISA. The experimental procedure refers to the specification of HBsAg ELISA kit.
a) The anti-HBV activity of the test compound on AAV/HBV mice model was evaluated by determining the content of HBsAg in the plasma of the mice.

HBV [2] = test: In vivo pharmacodynamic study of hydrodynamic injection mouse HBV model (HDI-HBV) via tail vein; set-up: species or system Balb/c mice; settings: mouse plasma
Description: Anti-hepatitis B virus activity of the compound of the embodiment in vivo was evaluated by HDI mice model.
Balb/c mice, 10% HP—F-CD as vehicle, test compound, RG7834, ETV (Entecavir), pAAV2-HBV 1.3mer plasmid (extracted with Qiagen EndoFree Plasmid Giga kit), main reagents including QIAamp96 DNA kit and FasStart Universal Probe Mast (ROX). The main instruments used in this experiment included centrifuge (Beckman Allegra X-15R), tissue grinder (QIAGEN-Tissue lyser II) and spectrophotometer (Thermo-NANODROP 1000).
b) On day 0, all mice were subjected to hydrodynamic injection with HBV plasmid DNA solution via tail vein. The plasmid DNA was pre-treated with sterile physiological saline before injection and stored at 4° C. until use. Plasmid DNA solution was injected via the tail vein at a dose of 8% of the body weight of the mouse within 5 seconds.
c) On the 1st day to the 7th day, the mice were administered with the compound or solvent by oral gavage for 7 days.
d) On the 1st day, 3rd day and 5th day, the blood was collected from the submandibular vein of the mice, and heparin sodium was used as an anticoagulant. The blood sample was centrifuged at 7,000×g, 4° C. to prepare the plasma for the determination of HBV DNA.
e) On the 7^h day, all mice were euthanized by CO2. The blood was collected from the heart to prepare plasma, and the liver tissue was collected. Two left hepatic lobe were isolated, the size of which was 70-100 mg, and were frozen by liquid nitrogen immediately after collection. One of the hepatic lobe was used for HBV DNA detection, and the other was used for backup.
The content of HBsAg in the serum of the mice was determined by ELISA (enzyme linked immunosorbent assay). The experimental procedure refers to the specification of HBsAg ELISA kit.
The inhibitory activity of the test compound on HBV replication on the mouse HDI model was determined by measuring the content of HBsAg in the plasma of the mice.

Row | SMILES | EC50 (HBV-DNA) | EC50 (HBsAg) | further results
1 | CSCCOc1cc2c(cc1Cl)-c1cc(=O)c(C(=O)O)cn1[C@H](C(C)C)CO2 [Embodiment 8] | 0.0222 µM | 0.018 µM | 
2 | COCCCOc1cc2c(cc1Cl)-c1cc(=O)c(C(=O)O)cn1[C@H](C(C)(C)C)CO2 [Embodiment 24] | 0.000457 µM | 0.000743 µM | 
3 | CO/N=C/CCOc1cc2c(cc1Cl)-c1cc(=O)c(C(=O)O)cn1[C@H](C(C)C)CO2 [Embodiment 10] | 0.00367 µM | 0.00505 µM | 
4 | COCCCOc1cc2c(cc1Br)-c1cc(=O)c(C(=O)O)cn1[C@H](C(C)(C)C)CO2 [Embodiment 25] | < 0.000457 µM | 0.000769 µM | 
5 | CC[C@@H]1COc2cc(OCCCOC)c(Cl)cc2-c2cc(=O)c(C(=O)O)cn21 [Embodiment 1] | 0.0447 µM | 0.0472 µM | 
6 | CC(C)COc1cc2c(cc1Cl)-c1cc(=O)c(C(=O)O)cn1[C@H](C(C)C)CO2 [Embodiment 16] | 0.0114 µM | 0.00973 µM | 
7 | COCCCOc1cc2c(cc1C(C)=O)-c1cc(=O)c(C(=O)O)cn1[C@H](C(C)C)CO2 [Embodiment 29] | 0.000507 µM | 0.00134 µM | 
8 | CC(C)[C@@H]1COc2cc(OCC3CC3)c(Cl)cc2-c2cc(=O)c(C(=O)O)cn21 [Embodiment 15] | 0.00866 µM | 0.0104 µM | 
9 | COCCCOc1cc2c(cc1Cl)-c1cc(=O)c(C(=O)O)cn1[C@H](C(C)C)CO2 [Embodiment 2] | 0.00875 µM | 0.00659 µM | 
10 | CC(C)[C@@H]1COc2cc(OCCOCC(F)(F)F)c(Cl)cc2-c2cc(=O)c(C(=O)O)cn21 [Embodiment 13] | 0.0241 µM | 0.0439 µM | 
11 | COCCCCOc1cc2c(cc1Cl)-c1cc(=O)c(C(=O)O)cn1[C@H](C(C)C)CO2 [Embodiment 19] | 0.0117 µM | 0.00815 µM | 
12 | CC(C)[C@@H]1COc2cc(OCC3CCOCC3)c(Cl)cc2-c2cc(=O)c(C(=O)O)cn21 [Embodiment 17] | 0.00477 µM | 0.00505 µM | 
13 | COCCCOc1cc2c(cc1C1CC1)-c1cc(=O)c(C(=O)O)cn1[C@H](C(C)(C)C)CO2 [Embodiment 28] | 0.000508 µM | 0.000718 µM | 
14 | COCCCOc1cc2c(cc1C)-c1cc(=O)c(C(=O)O)cn1[C@H](C(C)(C)C)CO2 [Embodiment 27] | 0.0011 µM | 0.00251 µM | 
15 | COCCOc1cc2c(cc1Cl)-c1cc(=O)c(C(=O)O)cn1[C@H](C(C)C)CO2 [Embodiment 18] | 0.0347 µM | 0.0348 µM | 
16 | CC(C)[C@@H]1COc2cc(OCCCN3CCOC3=O)c(Cl)cc2-c2cc(=O)c(C(=O)O)cn21 [Embodiment 20] | 0.045 µM | 0.0419 µM | 
17 | COCCCOc1cc2c(cc1Cl)-c1cc(=O)c(C(=O)O)cn1[C@H](C1CCCC1)CO2 [Embodiment 4] | 0.0112 µM | 0.0658 µM | 
18 | CC(C)[C@@H]1COc2cc(OCCCSCC(=O)O)c(Cl)cc2-c2cc(=O)c(C(=O)O)cn21 [Embodiment 9] | 0.0162 µM | 0.0224 µM | 
19 | CCSCCOc1cc2c(cc1Cl)-c1cc(=O)c(C(=O)O)cn1[C@H](C(C)C)CO2 [Embodiment 7] | 0.0353 µM | 0.0598 µM | 
20 | CNC(=O)OCCCOc1cc2c(cc1Cl)-c1cc(=O)c(C(=O)O)cn1[C@H](C(C)C)CO2 [Embodiment 11] | 0.0143 µM | 0.0155 µM | 
21 | COc1cc2c(cc1Cl)-c1cc(=O)c(C(=O)O)cn1[C@H](C(C)C)CO2 [Embodiment 14] | 0.0234 µM | 0.0227 µM | 
22 | COCCCOc1cc2c(cc1Cl)-c1cc(=O)c(C(=O)O)cn1[C@H](C1CC1)CO2 [Embodiment 3] | 0.105 µM | 0.0662 µM | 
23 | CC(C)OC(=O)OCOP(=O)(CO[C@H](C)Cn1cnc2c(N)ncnc21)OCOC(=O)OC(C)C.O=C(O)/C=C/C(=O)O [TDF, reference compound] |  |  | HBsAg content in the plasma of the mice (HBV [1]; day 4): 4.56 IU/mL; HBsAg content in the plasma of the mice (HBV [1]; day 7): 4.59 IU/mL; HBsAg content in the plasma of the mice (HBV [1]; day 11): 4.66 IU/mL; HBsAg content in the plasma of the mice (HBV [1]; day 14): 4.50 IU/mL; HBsAg content in the plasma of the mice (HBV [1]; day 18): 4.61 IU/mL; HBsAg content in the plasma of the mice (HBV [1]; day 21): 4.52 IU/mL; HBsAg content in the plasma of the mice (HBV [1]; day 25): 4.33 IU/mL; HBsAg content in the plasma of the mice (HBV [1]; day 28): 4.34 IU/mL; HBsAg content in the plasma of the mice (HBV [1]; day −1): 4.59 IU/mL
24 | COCCCOc1cc2c(cc1C#N)-c1cc(=O)c(C(=O)O)cn1[C@H](C(C)C)CO2 [Embodiment 26] | 0.00219 µM | 0.00333 µM | 
25 | COC(=O)NCCCOc1cc2c(cc1Cl)-c1cc(=O)c(C(=O)O)cn1[C@H](C(C)C)CO2 [Embodiment 23] | 0.0241 µM | 0.0336 µM | 
26 | CC(C)[C@@H]1COc2cc(OCCCOC(F)(F)F)c(Cl)cc2-c2cc(=O)c(C(=O)O)cn21 [Embodiment 21] | 0.0232 µM | 0.0259 µM | 
27 | CCN(CC)C(=O)CCCOc1cc2c(cc1Cl)-c1cc(=O)c(C(=O)O)cn1[C@H](C(C)C)CO2 [Embodiment 12] | 0.0191 µM | 0.0255 µM | 
28 | CC[C@@H](C)C1COc2cc(OCCCOC)c(Cl)cc2-c2cc(=O)c(C(=O)O)cn21 (stereo partly drawn) [Embodiment 5] | 0.0215 µM | 0.0288 µM | 
29 | CC(=O)CCCOc1cc2c(cc1Cl)-c1cc(=O)c(C(=O)O)cn1[C@H](C(C)C)CO2 [Embodiment 22] | 0.0112 µM | 0.0114 µM | 
30 | C=C1[C@H](CO)[C@@H](O)C[C@@H]1n1cnc2c(=O)[nH]c(N)nc21 [Entecavir] |  |  | Log HBsAg (IU/mL) (Ave. value) (HBV [2]; dosing time day 1, 0.1 mg/kg QD gavage): 3.66 IU/mL; Log HBsAg (IU/mL) (Ave. value) (HBV [2]; dosing time day 3, 0.1 mg/kg QD gavage): 4.32 IU/mL; Log HBsAg (IU/mL) (Ave. value) (HBV [2]; dosing time day 5, 0.1 mg/kg QD gavage): 4.01 IU/mL; Log HBsAg (IU/mL) (Ave. value) (HBV [2]; dosing time day 7, 0.1 mg/kg QD gavage): 2.46 IU/mL
